The text below walks through data of PubChem BioAssay (NCI).

Test systems include CCRF-CEM leukemia; HCT-116 colon; HCT-15 colon; M14 melanoma; MALME-3M melanoma; NCI-H460 lung; OVCAR-5 ovarian; OVCAR-8 ovarian; SN12C renal; SNB-75 CNS.
Holding throughout (assay): NCI-60 cell line screen, 48 h

Structures are written as SMILES.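 Tested at 5 concentrations; 48 h exposure; 96-well plates; endpoints linearly interpolated, else capped at highest concentration. GI50 = concentration required for 50% inhibition of growth. TGI is the concentration that stops growth completely.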

As for `COc1cc(/C=N/O)nc(-c2ccccn2)c1`, the GI50 in the test on CCRF-CEM leukemia was 0.207 µM; with HCT-116 colon, 0.351 µM; in the test with HCT-15 colon, 0.197 µM; with MALME-3M melanoma, 0.431 µM; with NCI-H460 lung it was 0.304 µM; with OVCAR-5 ovarian it was 0.637 µM. The GI50 in the test on OVCAR-8 ovarian was 0.348 µM; in the test with SN12C renal, 0.434 µM; in the test on SNB-75 CNS, 0.5 µM. Moreover, the TGI in the test with CCRF-CEM leukemia was over 33.2 µM; in the test with HCT-116 colon, over 100 µM; in the test with HCT-15 colon, over 100 µM; in the test with M14 melanoma, 4.98 µM; in the test on MALME-3M melanoma, 12.2 µM; in the test with NCI-H460 lung, 12.9 µM. The values for the TGI in the test on OVCAR-5 ovarian, in the test on OVCAR-8 ovarian and in the test on SN12C renal were over 100 µM, 22.8 µM and over 44.7 µM, respectively.
Turning to `Cc1cccc2cc3ccc4ccccc4c3cc12`, the TGI is 39.3 µM in the test with CCRF-CEM leukemia; over 100 µM in the test with HCT-116 colon; over 100 µM with HCT-15 colon; over 100 µM in the test on M14 melanoma; over 100 µM in the test with MALME-3M melanoma; 83.2 µM in the test on NCI-H460 lung. In addition, the TGI in the test with OVCAR-5 ovarian, in the test with OVCAR-8 ovarian, with SN12C renal and in the test with SNB-75 CNS was over 100 µM in each case.
Regarding `CCc1c(-c2coc(CC/C(C)=C/c3ccccc3)n2)oc(OC)c(C)c1=O`, the TGI in the test with CCRF-CEM leukemia is over 100 µM; with HCT-116 colon it was over 87.8 µM; with HCT-15 colon, over 55.5 µM; with M14 melanoma, over 61.4 µM; in the test on MALME-3M melanoma it was over 100 µM; in the test with NCI-H460 lung, over 100 µM. Moreover, the TGI with OVCAR-5 ovarian was over 100 µM; in the test on OVCAR-8 ovarian it was over 100 µM; with SN12C renal, over 62.2 µM; in the test on SNB-75 CNS, over 100 µM.
On to `O=c1cc(-c2ccc[nH]2)[nH]c2cc3c(cc12)OCO3`, for which the TGI in the test with CCRF-CEM leukemia, in the test with HCT-116 colon, in the test with HCT-15 colon, with M14 melanoma, in the test with MALME-3M melanoma and in the test with NCI-H460 lung was over 100 µM each time. The TGI with OVCAR-8 ovarian was over 100 µM; in the test on SN12C renal, over 100 µM; in the test on SNB-75 CNS it was 68.9 µM. The GI50 with HCT-116 colon was 29.4 µM.
Regarding `COc1ccc(Cn2cc3c(c2-c2ccccc2)CCc2cncnc2-3)cc1`, the GI50 with CCRF-CEM leukemia was 3.99 µM; in the test on HCT-116 colon, 3.65 µM; in the test on HCT-15 colon it was 4.3 µM; with M14 melanoma it was 4.2 µM; in the test on MALME-3M melanoma it was 3.18 µM; in the test on NCI-H460 lung, 3.48 µM. Besides, the GI50 with OVCAR-5 ovarian is 18.4 µM; with OVCAR-8 ovarian, 7.76 µM; with SN12C renal, 5.85 µM; in the test on SNB-75 CNS, 3.98 µM. For the same compound, the TGI is 18.3 µM in the test on CCRF-CEM leukemia; 14.9 µM in the test with HCT-116 colon; 16.5 µM in the test with HCT-15 colon; 18.2 µM in the test with M14 melanoma; 12.8 µM in the test with MALME-3M melanoma; 13.1 µM in the test on NCI-H460 lung. Further, the TGI stood at 37.7 µM in the test on OVCAR-5 ovarian, 23.7 µM in the test with OVCAR-8 ovarian, 20.9 µM in the test with SN12C renal and 13.5 µM with SNB-75 CNS.
As for `c1cc(C2N3CCCN2CC3)ccn1` (configuration not stated), the TGI is over 100 µM in the test with CCRF-CEM leukemia; over 100 µM in the test on HCT-116 colon; over 100 µM with HCT-15 colon; over 100 µM in the test with M14 melanoma; 80.1 µM in the test on MALME-3M melanoma; over 100 µM in the test with NCI-H460 lung. For the same compound, the TGI in the test with OVCAR-5 ovarian, with OVCAR-8 ovarian, in the test with SN12C renal and in the test with SNB-75 CNS was over 100 µM throughout.
Take `O=C(O)CCc1nc(-c2ccccc2)c(-c2ccccc2)o1`: the TGI with CCRF-CEM leukemia, in the test with HCT-116 colon, in the test with HCT-15 colon, in the test on M14 melanoma, in the test with MALME-3M melanoma and with NCI-H460 lung was over 100 µM throughout. The TGI in the test on OVCAR-5 ovarian, in the test with OVCAR-8 ovarian, in the test on SN12C renal and in the test on SNB-75 CNS was over 100 µM each time.
Consider `Cc1ccc(C(=O)Nc2ccccc2C(=O)N/N=C(\c2ccccc2)c2ccccn2)cc1`, for which the GI50 with CCRF-CEM leukemia was 0.167 µM; with HCT-116 colon it was 0.348 µM; in the test with HCT-15 colon, 0.06 µM; in the test on M14 melanoma it was 0.272 µM; with MALME-3M melanoma, 0.752 µM; with NCI-H460 lung it was 0.211 µM. The GI50 is 0.607 µM in the test with OVCAR-5 ovarian, 0.377 µM in the test with OVCAR-8 ovarian, 0.76 µM with SN12C renal and 1.18 µM in the test on SNB-75 CNS. In addition, the TGI in the test with CCRF-CEM leukemia is over 100 µM; with HCT-116 colon, over 100 µM; in the test with HCT-15 colon, over 100 µM; with M14 melanoma, 3.26 µM; in the test on MALME-3M melanoma it was over 100 µM; in the test on NCI-H460 lung, over 100 µM. Besides, the TGI with OVCAR-5 ovarian is over 100 µM; with OVCAR-8 ovarian, over 100 µM; in the test with SN12C renal, over 100 µM; in the test with SNB-75 CNS it was over 39.2 µM.
Regarding `CN(Cc1ccccc1)c1nc(=[N+](C)C)ss1`, the TGI with CCRF-CEM leukemia, with HCT-116 colon, with HCT-15 colon, in the test on M14 melanoma, in the test on MALME-3M melanoma and in the test with NCI-H460 lung was over 100 µM each time. Besides, the TGI with OVCAR-5 ovarian, with OVCAR-8 ovarian, in the test on SN12C renal and in the test with SNB-75 CNS was over 100 µM in each case.
Consider `O/N=C1/C(=C/c2ccc(Cl)cc2)CCCC1C(NO)c1ccc(Cl)cc1` (configuration not stated), for which the TGI was determined as 42.6 µM in the test with CCRF-CEM leukemia; 67.1 µM in the test on HCT-116 colon; 46.8 µM with HCT-15 colon; 33.8 µM in the test on M14 melanoma; 64.6 µM with MALME-3M melanoma; 35.3 µM with NCI-H460 lung. Further, the TGI worked out at 55.3 µM in the test on OVCAR-8 ovarian, 39.7 µM in the test on SN12C renal and 39.5 µM with SNB-75 CNS.
`CC(C)(C)[Si](Nc1ccccc1)(c1ccccc1)c1ccccc1`: the TGI with CCRF-CEM leukemia is 39.7 µM; in the test with HCT-116 colon, 20.6 µM; in the test on HCT-15 colon, 28.4 µM; in the test with M14 melanoma it was 27.5 µM; in the test with MALME-3M melanoma it was 41.8 µM; in the test on NCI-H460 lung, 37.7 µM. For the same compound, the TGI was 34 µM in the test on OVCAR-8 ovarian, 28.3 µM with SN12C renal and 24.5 µM in the test with SNB-75 CNS.
For the compound `C/C=C/COc1cc(NC(=S)c2ccoc2C)ccc1OC`, the TGI with CCRF-CEM leukemia, with HCT-116 colon, with HCT-15 colon, in the test on M14 melanoma, in the test with MALME-3M melanoma and in the test with OVCAR-5 ovarian was over 100 µM in each case. Besides, the TGI in the test on OVCAR-8 ovarian, with SN12C renal and in the test on SNB-75 CNS was over 100 µM throughout.
With `OCCCCC#Cc1ccccc1C#Cc1cccs1`, the GI50 with CCRF-CEM leukemia was 2.29 µM; with HCT-116 colon, 15.2 µM; in the test with HCT-15 colon it was 13.1 µM; in the test on MALME-3M melanoma, 22.8 µM; in the test with NCI-H460 lung it was 15.1 µM; in the test with OVCAR-5 ovarian, 16.1 µM. For the same compound, the figures for the GI50 with OVCAR-8 ovarian, with SN12C renal and with SNB-75 CNS were 16.4 µM, 16.3 µM and 11.8 µM, respectively. Also, the TGI was 11.5 µM with CCRF-CEM leukemia; 31.4 µM in the test with HCT-116 colon; 26.5 µM in the test with HCT-15 colon; 55.4 µM in the test on MALME-3M melanoma; 29.8 µM in the test on NCI-H460 lung; 31.7 µM in the test with OVCAR-5 ovarian. For the same compound, the TGI in the test with OVCAR-8 ovarian worked out at 31.2 µM; in the test with SN12C renal, 31.7 µM; in the test on SNB-75 CNS, 24.8 µM.
Regarding `COc1cc(C(=O)/C=C/c2c(-c3cccs3)nc3ccccn23)cc(OC)c1OC`, the GI50 in the test on CCRF-CEM leukemia is 1.66 µM; in the test with HCT-116 colon it was 1.63 µM; in the test with HCT-15 colon, 1.6 µM; in the test on MALME-3M melanoma it was 3.65 µM; in the test with NCI-H460 lung, 1.42 µM; with OVCAR-5 ovarian it was 2.64 µM. For the same compound, the GI50 in the test on OVCAR-8 ovarian is 1.68 µM; with SN12C renal, 2.44 µM; with SNB-75 CNS, 2.68 µM. The TGI was 6.85 µM with CCRF-CEM leukemia; 3.08 µM in the test with HCT-116 colon; 5.31 µM with HCT-15 colon; 21.7 µM in the test on MALME-3M melanoma; 2.84 µM in the test with NCI-H460 lung; 5.82 µM in the test on OVCAR-5 ovarian. In addition, the TGI in the test with OVCAR-8 ovarian was 6.31 µM; with SN12C renal, 27 µM; with SNB-75 CNS, 10.2 µM.
In the case of `O=C(Nc1ccc([N+](=O)[O-])cc1)c1cc2ccccc2cc1O`, the GI50 is 0.754 µM in the test with CCRF-CEM leukemia; 0.319 µM in the test with HCT-116 colon; 0.365 µM in the test with HCT-15 colon; 0.258 µM in the test on MALME-3M melanoma; 0.365 µM with NCI-H460 lung; 1.73 µM in the test on OVCAR-5 ovarian. For the same compound, the GI50 is 0.425 µM in the test with OVCAR-8 ovarian, 0.348 µM in the test with SN12C renal and 0.538 µM in the test on SNB-75 CNS. For the same compound, the TGI in the test on CCRF-CEM leukemia was over 100 µM; in the test on HCT-116 colon, 1.32 µM; in the test with HCT-15 colon, 5.07 µM; in the test on MALME-3M melanoma it was 1.11 µM; with NCI-H460 lung it was 6.31 µM; in the test with OVCAR-5 ovarian, 48.2 µM. In addition, the TGI in the test on OVCAR-8 ovarian was 12.6 µM; in the test with SN12C renal, 5.92 µM; with SNB-75 CNS, 4.07 µM.
`CCCCCC/C=C/CCCCCCCc1cccc(O)c1C(=O)O`: the TGI in the test on CCRF-CEM leukemia, with HCT-116 colon, in the test on HCT-15 colon, in the test on M14 melanoma, in the test with MALME-3M melanoma and in the test on NCI-H460 lung was over 100 µM throughout. Besides, the TGI with OVCAR-5 ovarian, in the test with OVCAR-8 ovarian and in the test with SNB-75 CNS was over 100 µM in each case.
On to `O=C(Nc1cc([N+](=O)[O-])cc([N+](=O)[O-])c1)OC1C2CCC1C1OC1C2` (configuration not stated), for which the TGI in the test with CCRF-CEM leukemia, in the test with HCT-116 colon, in the test on HCT-15 colon, with M14 melanoma, in the test on MALME-3M melanoma and with NCI-H460 lung was over 50 µM each time. In addition, the TGI in the test on OVCAR-5 ovarian, in the test on OVCAR-8 ovarian and in the test with SNB-75 CNS was over 50 µM each time.
